These results are taken from article PMC8298264, “Function of cofactor Akirin2 in the regulation of gene expression in model human neutrophil-like HL60 cells” (Bioscience Reports, 2021).

For assay [1], the system named is recombinant human Akirin2 (recAkirin2). Briefly: EpiTriton Histone Peptide Array, recAkirin2 binding (fluorescence). As to conditions: recAkirin2 vs HSP70, Student's t test and One-Way ANOVA (P<0.05), n=2 technical replicates.
The target of a further assay is recAkirin2 (Homo sapiens, UniProt Q53H80). Kind of assay: In vitro protein pull-down and Western blot of recAkirin2 with biotinylated histone H3.1 peptides. The class given is binding. Set-up: DDK (FLAG) (C); purchased GenScript (E. coli) or OriGene (HEK293T); 'insect cells and E. coli'. As to conditions: streptavidin beads, 1 µg protein, 2 h at RT, Akirin2-specific antibody ab130473. On the technique in general: A western blot detects proteins with antibodies after separation by electrophoresis.
recAkirin2, sequence (Q53H80 whole entry): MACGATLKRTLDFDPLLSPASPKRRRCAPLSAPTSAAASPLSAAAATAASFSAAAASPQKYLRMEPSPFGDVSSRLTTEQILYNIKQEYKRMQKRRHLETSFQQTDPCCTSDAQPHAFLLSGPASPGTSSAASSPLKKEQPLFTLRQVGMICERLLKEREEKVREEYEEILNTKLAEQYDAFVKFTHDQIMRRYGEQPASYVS

In a further assay the test system is tick SUB. As to conditions: cited from earlier work. The source says:
Epigenetic modifications of histone H3.1 at Lys amino acids has been involved in the regulation of transcription in different BPs and pathogen infection [[48–51]].

Assay [2] deals with ELANE and LHX2 mRNA in human HL60 cells. Kind of assay: Akirin2 'distraction' by histone peptide transfection, ELANE and LHX2 mRNA by qRT-PCR. The class given is cell-based. The note with it: 1.5 μg peptide per well, HL60 1 × 10^5 cells/well, harvested after 72 h; normalized to β-actin; unpaired t test P<0.05, n=3 biological replicates. On the technique in general: Quantitative PCR measures a nucleic acid by following its amplification.

Turning to “ARTKQTARKSTGGK(Me2)APRKQL-Peg-Biot [Peptide H3met, histone H3.1 amino acids 1–20 dimethylated at Lys^14, biotinylated]”, in assay [1], the “Akirin2–histone interaction by histone peptide array” value was “Akirin2–histone H3.1 interacting peptides”. Further, the “recAkirin2–histone H3.1 peptide interaction by pull-down and Western blot” value at recAkirin2 was “corroborated by in vitro protein pull-down and Western blot analysis”. In the case of “histone H4 but: histone H4, amino acids 1–23 butyrylated at Lys 5, 8 and 12”, the “physical interaction with tick SUB” value with tick SUB is “physical interaction”. Regarding “H2A: unrelated histone H2A (amino acids 1–17) peptide (Epicypher, Inc.) (SGRGKQGGKARAKAKTR; UniProt P0C0S8 2-18, looked up, fragment) [Peptide H2A]”, the “Effect of transfection on gene expression (ELANE and LHX2 mRNA)” value in assay [2] is on record as “not the unrelated H2A or HEPES buffer affected gene expression”.
